# According to patent US20220168430A1, “THERAPEUTIC METHODS FOR TREATING HEPATITIS B” (priority 2019, published 2022):
# System: HBV rcDNA
# Experiment: microbe, parasite or virus in culture
# Type: cell-based, HBV genotype D, serotype ayw; HepG 2.2.15
# Conditions: for SYNERGY PLOT (99%) Bonferroni Adj. 55%: TDF 0 μM, Cmpd 1 by row r37-r42: 0.405, 0.135, 0.045, 0.015, 0.005, 0 μM
# Protocol: In vitro triple agent combination studies were conducted using the method of Prichard and Shipman 1990 (Prichard M N, Shipman C, Jr. 1990. Antiviral Res 14:181-205). The HepG 2.2.15 cell line was derived from HepG2 cells with constitutive expression of HBV (genotype D, serotype ayw) (Sells M A, Chen M L, Acs G. 1987. Proc Natl Acad Sci USA 84:1005-9). […] The plates were incubated for 7 days in a humidified incubator at 37° C. and 5% CO2. The level of rcDNA present in the culture supernatants was measured using a Quantigene 2.0 bDNA assay kit (Affymetrix, Santa Clara, Calif.) with HBV specific custom probe set (genotype D ayw) and according to the manufacturer's instructions and read using a luminescence plate reader and the relative luminescence units (RLU) data generated from each well was calculated as % inhibition of the untreated control wells and analyzed using the MacSynergy II program to determine whether the combinations were synergistic, additive or antagonistic using the interpretive guidelines established by Prichard and Shipman (Prichard M N, Shipman C, Jr. 1990. […] Concurrently, in each experiment, the effect of inhibitor combinations on cell viability was assessed in triplicates that were used to determine the ATP content as a measure of cell viability using the Cell-Titer Glo reagent (Promega, Madison, Wis.) as per the manufacturer's instructions.
# [1] = Hepatitis B virus, HepG2.2.15, read-out: ADDITIVE INHIBITION
smiles,measurement,setting,value
COCCCOc1cc2c(nc1OC)-c1cc(=O)c(C(=O)O)cn1[C@H](C(C)C)C2 [Compound 2],AVERAGE % INHIBITION,"Cmpd 1 0 μM, Cmpd 2 0.0001 μM, TAF 0 μM",31.76%
same,AVERAGE % INHIBITION,"Cmpd 1 0 μM, Cmpd 2 0.0002 μM, TAF 0 μM",43.68%
same,AVERAGE % INHIBITION,"Cmpd 1 0 μM, Cmpd 2 0.0004 μM, TAF 0 μM",58.53%
same,AVERAGE % INHIBITION,"Cmpd 1 0 μM, Cmpd 2 0.001 μM, TAF 0 μM",71.85%
same,AVERAGE % INHIBITION,"Cmpd 1 0 μM, Cmpd 2 0.002 μM, TAF 0 μM",78.06%
same,AVERAGE % INHIBITION,"Cmpd 1 0 μM, Cmpd 2 0.003 μM, TAF 0 μM",83.72%
same,AVERAGE % INHIBITION,"Cmpd 1 0 μM, Cmpd 2 0.007 μM, TAF 0 μM",85.49%
same,AVERAGE % INHIBITION,"Cmpd 1 0 μM, Cmpd 2 0.027 μM, TAF 0 μM",87.17%
same,AVERAGE % INHIBITION,"Cmpd 1 0 μM, Cmpd 2 […], TAF 0 μM",89.05%
same,SYNERGY PLOT (99%) Bonferroni Adj. 55%,Cmpd 2 0.00002 μM,0
same,SYNERGY PLOT (99%) Bonferroni Adj. 55%,Cmpd 2 0.00004 μM,0
same,SYNERGY PLOT (99%) Bonferroni Adj. 55%,Cmpd 2 0.00008 μM,0
same,SYNERGY PLOT (99%) Bonferroni Adj. 55%,Cmpd 2 0.00016 μM,0
same,SYNERGY PLOT (99%) Bonferroni Adj. 55%,Cmpd 2 0.0003 μM,0
same,SYNERGY PLOT (99%) Bonferroni Adj. 55%,Cmpd 2 0.0006 μM,0
same,SYNERGY PLOT (99%) Bonferroni Adj. 55%,Cmpd 2 0.001 μM,0
same,SYNERGY PLOT (99%) Bonferroni Adj. 55%,Cmpd 2 0.003 μM,0
same,SYNERGY PLOT (99%) Bonferroni Adj. 55%,Cmpd 2 0.005 μM,0
same,AVERAGE % INHIBITION,"ETV @ 0 μM, Cmpd 2 0.0001 μM alone",39.44%
same,AVERAGE % INHIBITION,"ETV @ 0 μM, Cmpd 2 0.0002 μM alone",47.6%
same,AVERAGE % INHIBITION,"ETV @ 0 μM, Cmpd 2 0.0004 μM alone",67.99%
same,AVERAGE % INHIBITION,"ETV @ 0 μM, Cmpd 2 0.001 μM alone",74.24%
same,AVERAGE % INHIBITION,"ETV @ 0 μM, Cmpd 2 0.002 μM alone",77.97%
same,AVERAGE % INHIBITION,"ETV @ 0 μM, Cmpd 2 0.003 μM alone",83.78%
same,AVERAGE % INHIBITION,"ETV @ 0 μM, Cmpd 2 0.007 μM alone",86.78%
same,AVERAGE % INHIBITION,"ETV @ 0 μM, Cmpd 2 0.027 μM alone",88.04%
same,AVERAGE % INHIBITION,"ETV @ 0 μM, Cmpd 2 […] alone",88.65%
same,inhibition at 20 pM,[1],7.15%
same,inhibition at 40 pM,[1],9.56%
same,inhibition at 0.00016 µM,[1],36.2%
same,inhibition at 0.0003 µM,[1],40.9%
same,inhibition at 0.0006 µM,[1],64.5%
same,inhibition at 0.001 µM,[1],69.8%
same,inhibition at 0.003 µM,[1],74.5%
same,inhibition at 0.005 µM,[1],77.5%
